Source: patent US11850279B2, “Platforms and methods for optimizing host antigen presentation and host antitumor and antipathogen immunity” (OHIO STATE INNOVATION FOUNDATION, priority 2016, dated 2023)

Columns and labels:
tumor [1] = assay: Anti-tumor activity of CABs (tumor size); format: in vivo, mouse
Procedure: The zero-length cross linker EDAC promotes attachment of amino-containing molecules to activated B cells, such as CABs (Chlamydia activated B cells). In the bottom panel, the antigen presenting ability of activated B cells (or other professional APCs) can be enhanced by crosslinking desired antigen (protein or peptide) with EDAC prior to in vivo administration.
“Low dose” is therefore defined as 2 μg-8 μg per kg in humans for Flt-3L, and 0.5 μg-2 μg per kg in humans for GM-CSF. “High dose” is defined as any amount above 8 μg/kg of Flt-3L and above 2 μg/kg of GM-CSF.

CD8^+ T cells = assay: In vivo CD8+ T cell priming by activated B cells / CABs
Source text: In other words, in vivo CD8^+ T cell priming is increased by antecedent treatment with Flt-3L and GM-CSF.
In vivo CD8^+ T cell priming is increased by CHX treatment of activated B cells prior to injection. CHX can boost antigen presenting capacity by increasing survival of activated B cells.
While in this model, GM-CSF/Flt-3L administration improved the efficacy of OVA-loaded B cell treatment, it is important to note that this cytokine treatment can improve the efficacy of intervention with other antigen-loaded antigen presenting cells (e.g. dendritic cell-based vaccine platforms).

endogenous DCs = assay: Activation of endogenous DCs by α-GC loaded CABs; conditions: α-GC loading of CABs prior to in vivo administration
Source text: In addition to GM-CSF and Flt-3L, antigen presenting capabilities of activated B cells (or other professional APCs) are enhanced by in vitro loading of APCs with α-GC prior to in vivo administration.

tumor [2] = conditions: cited from earlier work
NKT cells = conditions: human, in vivo; cited from earlier work

Compound: CCN=C=NCCCN(C)C [EDAC, 1-ethyl 1-3-(3-dimethylaminopropyl)-carbodiimide]
- antitumor therapeutic activity (tumor [1]; peptide chemically conjugated to CABs using EDAC vs simple peptide pulsing/loading): increases antitumor therapeutic activity

Compound: CCCCCCCCCCCCCCCCCCCCCCCCCC(=O)N[C@@H](CO[C@H]1O[C@H](CO)[C@H](O)[C@H](O)[C@H]1O)[C@H](O)[C@H](O)CCCCCCCCCCCCCC [α-GC, α-Galactosylceramide]
- effector function of primed antigen-specific CD8^+ T cells (CD8^+ T cells; α-GC-loaded CABs): enhance
- tumor size (tumor [1]; α-GC loaded activated B cells, effect dependent on NKT cells): more effectively reduce tumor size
- activation of endogenous DCs (endogenous DCs): dramatically increase
- tumor growth (tumor [2]): inhibit tumor growth
- NKT cells in the peripheral blood of treated cancer patients (NKT cells): fell to undetectable levels

Compound: C[C@@H]1C[C@@H]([C@H](O)CC2CC(=O)NC(=O)C2)C(=O)[C@@H](C)C1 [CHX, Cycloheximide]
- in vivo CD8^+ T cell priming (CD8^+ T cells; CHX treatment of activated B cells prior to injection): increased
